IC50 data for 19 compounds are collected here from patent publication US10738056B2 (Aduro BioTech, Inc., priority 2017, dated 2020).

Where only a bound is given, the exact number is not on record here.

The target in test [1] is Human cGAS amino acids 155-522 (Homo sapiens (Human), UniProt Q8N884). The test is described as follows: cGAS biochemical activity assay (ATP remaining, Kinase-Glo Max luminescence). To be noted: human cGAS 155-522, ATP remaining (Kinase-Glo Max); read-out: cGAS IC50.
In test [2] the test system is cGAS/STING pathway in THP1 cells. Briefly: THP1 cell-based cGAS/STING pathway activity assay (IRF-3-linked luciferase reporter). The note with it: Homo sapiens, THP-1. An outline of the steps: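 THP1 cells carrying an IRF-3-driven luciferase reporter were read across a range of compound concentrations, and IC50 values were derived from these concentration responses; the assay upper limit was 100 μM.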

Chain of Human cGAS amino acids 155-522 (Q8N884 157-522): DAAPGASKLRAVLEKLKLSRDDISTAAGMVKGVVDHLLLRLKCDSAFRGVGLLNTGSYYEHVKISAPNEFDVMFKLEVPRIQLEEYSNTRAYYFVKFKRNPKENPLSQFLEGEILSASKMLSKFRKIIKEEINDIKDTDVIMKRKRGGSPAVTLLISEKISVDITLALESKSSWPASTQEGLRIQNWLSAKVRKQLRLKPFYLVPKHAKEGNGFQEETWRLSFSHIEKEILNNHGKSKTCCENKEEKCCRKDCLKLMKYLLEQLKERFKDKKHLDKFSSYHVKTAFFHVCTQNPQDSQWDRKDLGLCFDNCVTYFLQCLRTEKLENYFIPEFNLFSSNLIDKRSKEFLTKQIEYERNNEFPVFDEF

On to `Cc1[nH]c2c(-c3ccccc3)c(C(F)(F)F)nn2c(=O)c1-c1nnc(C2CCOCC2)o1` [Compound D1016, 5-methyl-3-phenyl-6-(5-(tetrahydro-2H-pyran-4-yl)-1,3,4-oxadiazol-2-yl)-2-(trifluoromethyl)pyrazolo[1,5-a]pyrimidin-7(4H)-one], for which the IC50 is < 20 µM in test [1] and > 100 µM in test [2].

With `COCc1nnc(-c2c(C)[nH]c3c(-c4ccccc4)c(C(F)(F)F)nn3c2=O)o1` [Compound D1019, 6-(5-(methoxymethyl)-1,3,4-oxadiazol-2-yl)-5-methyl-3-phenyl-2-(trifluoromethyl)pyrazolo[1,5-a]pyrimidin-7(4H)-one], the IC50 in test [1] is < 20 µM; in test [2], > 100 µM.

`Cc1[nH]c2c(-c3ccccc3)c(C(F)(F)F)nn2c(=O)c1-c1nnc(N2CCCCC2)o1` [Compound D1020, 5-methyl-3-phenyl-6-(5-(piperidin-1-yl)-1,3,4-oxadiazol-2-yl)-2-(trifluoromethyl)pyrazolo[1,5-a]pyrimidin-7(4H)-one]: the values for the IC50 in test [1] and in test [2] were < 20 µM and > 100 µM, respectively.

`Cc1[nH]c2c(-c3ccccc3)c(C(F)(F)F)nn2c(=O)c1-c1nnc(N2CCCC2C)o1` (centres unmarked) [Compound D1022, 5-methyl-6-(5-(2-methylpyrrolidin-1-yl)-1,3,4-oxadiazol-2-yl)-3-phenyl-2-(trifluoromethyl)pyrazolo[1,5-a]pyrimidin-7(4H)-one]: the IC50 in test [1] was < 20 µM; in test [2], > 100 µM.

As for `Cc1[nH]c2c(-c3ccccc3)c(C(F)(F)F)nn2c(=O)c1-c1nnc(C2(C)CCCC2)o1` [Compound D1023, 5-methyl-6-(5-(1-methylcyclopentyl)-1,3,4-oxadiazol-2-yl)-3-phenyl-2-(trifluoromethyl)pyrazolo[1,5-a]pyrimidin-7(4H)-one], the IC50 in test [1] was < 20 µM; in test [2], > 100 µM.

In the case of `Cc1[nH]c2c(-c3ccccc3)c(C(F)(F)F)nn2c(=O)c1-c1nnc(C2CCCCO2)o1` (centres unmarked) [Compound D1024, 5-methyl-3-phenyl-6-(5-(tetrahydro-2H-pyran-2-yl)-1,3,4-oxadiazol-2-yl)-2-(trifluoromethyl)pyrazolo[1,5-a]pyrimidin-7(4H)-one], the figures for the IC50 in test [1] and in test [2] were < 20 µM and > 100 µM, respectively.

Regarding `Cc1[nH]c2c(-c3ccccc3)c(C(F)(F)F)nn2c(=O)c1-c1nnc([C@H]2CCCOC2)o1` [Compound D1025, (S)-5-methyl-3-phenyl-6-(5-(tetrahydro-2H-pyran-3-yl)-1,3,4-oxadiazol-2-yl)-2-(trifluoromethyl)pyrazolo[1,5-a]pyrimidin-7(4H)-one], the IC50 in test [1] is < 20 µM; in test [2], 20 to 100 µM.

Turning to `Cc1[nH]c2c(-c3ccccc3)c(C(F)(F)F)nn2c(=O)c1-c1nnc([C@@H]2CCCOC2)o1` [Compound D1026, (R)-5-methyl-3-phenyl-6-(5-(tetrahydro-2H-pyran-3-yl)-1,3,4-oxadiazol-2-yl)-2-(trifluoromethyl)pyrazolo[1,5-a]pyrimidin-7(4H)-one], the IC50 in test [1] was < 20 µM; in test [2], > 100 µM.

Turning to `COC1CCCN(c2nnc(-c3c(C)[nH]c4c(-c5ccccc5)c(C(F)(F)F)nn4c3=O)o2)C1` (centres unmarked) [Compound D1027, 6-(5-(3-methoxypiperidin-1-yl)-1,3,4-oxadiazol-2-yl)-5-methyl-3-phenyl-2-(trifluoromethyl)pyrazolo[1,5-a]pyrimidin-7(4H)-one], the IC50 in test [1] was < 20 µM; in test [2], > 100 µM.

For `CO[C@](c1ccccc1)(c1nnc(-c2c(C)[nH]c3c(-c4ccccc4)c(C(F)(F)F)nn3c2=O)o1)C(F)(F)F` [Compound D1029, (R)-5-methyl-3-phenyl-6-(5-(2,2,2-trifluoro-1-methoxy-1-phenylethyl)-1,3,4-oxadiazol-2-yl)-2-(trifluoromethyl)pyrazolo[1,5-a]pyrimidin-7(4H)-one], the IC50 in test [1] was < 20 µM; in test [2], > 100 µM.

Consider `Cc1nn2c(=O)c(-c3nnc(C4CCCOC4)o3)c(C)[nH]c2c1-c1ccccc1` (centres unmarked) [Compound D1030, 2,5-dimethyl-3-phenyl-6-(5-(tetrahydro-2H-pyran-3-yl)-1,3,4-oxadiazol-2-yl)pyrazolo[1,5-a]pyrimidin-7(4H)-one], for which the IC50 in test [1] is < 20 µM; in test [2], > 100 µM.

Consider `Cc1[nH]c2c(-c3ccccc3)c(C(F)(F)F)nn2c(=O)c1-c1nnc(C2(C(F)(F)F)CC2)o1` [Compound D1038, 5-methyl-3-phenyl-2-(trifluoromethyl)-6-(5-(1-(trifluoromethyl)cyclopropyl)-1,3,4-oxadiazol-2-yl)pyrazolo[1,5-a]pyrimidin-7(4H)-one], for which the IC50 in test [1] and in test [2] was < 20 µM each time.

As for `Cc1[nH]c2c(-c3ccccc3)c(C(F)(F)F)nn2c(=O)c1-c1nnc(C2CCCN(S(C)(=O)=O)C2)o1` (centres unmarked) [Compound D1040, 5-methyl-6-(5-(1-(methylsulfonyl)piperidin-3-yl)-1,3,4-oxadiazol-2-yl)-3-phenyl-2-(trifluoromethyl)pyrazolo[1,5-a]pyrimidin-7(4H)-one], the IC50 was < 20 µM in test [1] and > 100 µM in test [2].

As for `CC(=O)N1CCCC(c2nnc(-c3c(C)[nH]c4c(-c5ccccc5)c(C(F)(F)F)nn4c3=O)o2)C1` (centres unmarked) [Compound D1041, 6-(5-(1-acetylpiperidin-3-yl)-1,3,4-oxadiazol-2-yl)-5-methyl-3-phenyl-2-(trifluoromethyl)pyrazolo[1,5-a]pyrimidin-7(4H)-one], the IC50 in test [1] is 20 to 250 µM; in test [2] it was > 100 µM.

For `Cc1[nH]c2c(-c3ccccc3)c(C(F)(F)F)nn2c(=O)c1-c1nnc(C2COCCN2)o1` (centres unmarked) [Compound D1042, 5-methyl-6-(5-(morpholin-3-yl)-1,3,4-oxadiazol-2-yl)-3-phenyl-2-(trifluoromethyl)pyrazolo[1,5-a]pyrimidin-7(4H)-one], the IC50 in test [1] was 20 to 250 µM; in test [2], > 100 µM.

Take `Cc1[nH]c2c(-c3ccccc3)c(C(F)(F)F)nn2c(=O)c1-c1nnc(C2COCCN2S(C)(=O)=O)o1` (centres unmarked) [Compound D1047, 5-methyl-6-(5-(4-(methylsulfonyl)morpholin-3-yl)-1,3,4-oxadiazol-2-yl)-3-phenyl-2-(trifluoromethyl)pyrazolo[1,5-a]pyrimidin-7(4H)-one]: the IC50 in test [1] is < 20 µM; in test [2], > 100 µM.

In the case of `COC(C)(C)c1nnc(-c2c(C)[nH]c3c(-c4ccccc4)c(C(F)(F)F)nn3c2=O)o1` [Compound D1048, 6-(5-(2-methoxypropan-2-yl)-1,3,4-oxadiazol-2-yl)-5-methyl-3-phenyl-2-(trifluoromethyl)pyrazolo[1,5-a]pyrimidin-7(4H)-one], the IC50 in test [1] is 20 to 250 µM; in test [2] it was > 100 µM.

As to `CC(=O)N1CCOCC1c1nnc(-c2c(C)[nH]c3c(-c4ccccc4)c(C(F)(F)F)nn3c2=O)o1` (centres unmarked) [Compound D1050, 6-(5-(4-acetylmorpholin-3-yl)-1,3,4-oxadiazol-2-yl)-5-methyl-3-phenyl-2-(trifluoromethyl)pyrazolo[1,5-a]pyrimidin-7(4H)-one], the results for the IC50 in test [1] and in test [2] were 20 to 250 µM and > 100 µM, respectively.

In the case of `Cc1[nH]c2c(-c3ccccc3)c(C(F)(F)F)nn2c(=O)c1-c1nnc(C2(C)CCCOC2)o1` (centres unmarked) [Compound D1051, 5-methyl-6-(5-(3-methyltetrahydro-2H-pyran-3-yl)-1,3,4-oxadiazol-2-yl)-3-phenyl-2-(trifluoromethyl)pyrazolo[1,5-a]pyrimidin-7(4H)-one], the IC50 was 20 to 250 µM in test [1] and > 100 µM in test [2].
